{
  "source": "patent US6525001B1",
  "about": "“Substituted pyrimidine and pyridine herbicides” (Mid-American Commercialization Corporation, priority 1997, dated 2003)",
  "format_in_all_cases": "in vivo",
  "key": {"[1]": {"test_system": "barnyardgrass (Echinochloa crus-galli)", "test": "Test E pre-/postemergence/post directed", "set-up": "key: 0 is no injury; 100 is complete control", "conditions": "PREEMERGENCE", "in_short": "(§1)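 Three application modes in greenhouse pots: preemergence soil spray, postemergence foliar spray at two to four leaves, and post-directed spray to soil and plant base. Ratings of 0–100 injury, assigned visually against untreated controls 13 to 21 days later.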"}, "[2]": {"test_system": "downy brome (Bromus tectorum)", "test": "Test D", "set-up": "key: 0 is no effect; 10 is complete control", "conditions": "PREEMERGENCE, Rate 62 g/ha"}, "[3]": {"test_system": "pitted morningglory (Ipomoea lacunosa)", "test": "Test E pre-/postemergence/post directed", "set-up": "key: 0 is no injury; 100 is complete control", "conditions": "PREEMERGENCE", "in_short": "as §1"}, "[4]": {"test_system": "large crabgrass (Digitaria sanguinalis)", "test": "Test E pre-/postemergence/post directed", "set-up": "key: 0 is no injury; 100 is complete control", "conditions": "PREEMERGENCE, Rate 32 g/ha", "in_short": "as §1"}, "[5]": {"test_system": "bermudagrass (Cynodon dactylon)", "test": "Test E pre-/postemergence/post directed", "set-up": "key: 0 is no injury; 100 is complete control", "conditions": "POSTEMERGENCE", "in_short": "as §1"}, "[6]": {"test_system": "Italian ryegrass (Lolium multiflorum)", "test": "Test D", "set-up": "key: 0 is no effect; 100 is complete control", "conditions": "PREEMERGENCE"}, "[7]": {"test_system": "common ragweed (Ambrosia elatior)", "test": "Test E pre-/postemergence/post directed", "set-up": "key: 0 is no injury; 100 is complete control", "conditions": "PREEMERGENCE, Rate 32 g/ha", "in_short": "as §1"}},
  "data": [
    {"smiles": "Cc1cnc(-c2ccc(C(F)(F)F)cc2)nc1Cc1cccc(OC(F)(F)F)c1", "note": "[Compound 15]", "values": [
      {"measurement": "Plant response rating, Barnyardgrass", "setting": "[1]; Rate 32 g/ha", "result": 0},
      {"measurement": "Plant response rating, Barnyardgrass", "setting": "[1]; Rate 64 g/ha", "result": 0}
    ]},
    {"smiles": "CCc1cnc(-c2ccc(C(F)(F)F)cc2)nc1Cc1cccc(C(F)(F)F)c1", "note": "[Compound 22]", "values": [
      {"measurement": "Plant response rating, Downy brome", "setting": "[2]", "result": 0}
    ]},
    {"smiles": "COc1cnc(-c2ccc(C(F)(F)F)cc2)nc1Cc1cccc(C(F)(F)F)c1", "note": "[Compound 23]", "values": [
      {"measurement": "Plant response rating, P. morninglory", "setting": "[3]; Rate 32 g/ha", "result": 0},
      {"measurement": "Plant response rating, P. morninglory", "setting": "[3]; Rate 64 g/ha", "result": 0}
    ]},
    {"smiles": "Cc1cnc(-n2cnc(C(F)(F)F)c2)nc1Cc1cccc(C(F)(F)F)c1", "note": "[Compound 44]", "values": [
      {"measurement": "Plant response rating, Large crabgrass", "setting": "[4]", "result": 0},
      {"measurement": "Plant response rating, Bermudagrass", "setting": "[5]; Rate 125 g/ha", "result": 0},
      {"measurement": "Plant response rating, Bermudagrass", "setting": "[5]; Rate 250 g/ha", "result": 0}
    ]},
    {"smiles": "Cc1cnc(-c2ccc(C(F)(F)F)cc2)nc1Cc1cccc(C(F)(F)F)c1", "note": "[Example 1, 5-methyl-2-[4-(trifluoromethyl)phenyl]-4-[[3-(trifluoromethyl)phenyl]methyl]pyrimidine]", "values": [
      {"measurement": "Plant response rating, I. Ryegrass", "setting": "[6]; Rate 125 g/ha", "result": 100},
      {"measurement": "Plant response rating, I. Ryegrass", "setting": "[6]; Rate 250 g/ha", "result": 100}
    ]},
    {"smiles": "CCc1cnc(-n2ccc(C(F)(F)F)n2)nc1Cc1cccc(C(F)(F)F)c1", "note": "[Compound 46]", "values": [
      {"measurement": "Plant response rating, Com. ragweed", "setting": "[7]", "result": 0}
    ]}
  ]
}
